# Source: paper PMC7400457, “Profiling and Identification of Omeprazole Metabolites in Mouse Brain and Plasma by Isotope Ratio-Monitoring Liquid Chromatography-Mass Spectrometric Method” (Life, 2020)
# Read-outs that look alike come from different tables or passages of the source.
# Assay: Pharmacokinetic study of omeprazole in mice after i.v., i.p. and p.o. administration (plasma and brain, LC-QTOF-MS)
# Assay type: in vivo, Male ICR mice
# Settings: 10 mg/kg; for Kp: brain/plasma; for bioavailability: read-out: BA (bioavailability)
# Experimental: Omeprazole formulation was freshly prepared on the day of experiment. Mice were randomly distributed into three different groups (twelve mice per group; p.o. group, i.v. group and i.p. group) and received 10 mg/kg of omeprazole. […] Blood was drawn into the heparinized tubes through cardiac puncture and was immediately centrifuged at 10,000 rpm for 5 min. The supernatant of the centrifuged samples was transferred to the clean tubes and stored at −80 °C until analysis. […] The homogenized samples were stored at −80 °C until usage. • Plasma samples: Ten microliters of the mouse plasma samples were placed in cluster tubes. […] Hundred microliters of ACN containing internal standard (ISTD, verapamil) was added to each sample for extraction. The mixture was capped, gently shaken for approximately 1 min and then was centrifuged for 5 min at 10,000 rpm (4 °C). Following the centrifugation, 50 μL supernatant was transferred to a clean test tube and was diluted with 100 μL of distilled water. […] Ten microliters of the mouse brain homogenate were placed in cluster tubes. […] Hundred microliters of ACN containing internal standard (ISTD, verapamil) was added to each sample for extraction. The mixture was capped, gently shaken for approximately 1 min and then centrifuged for 5 min at 10,000 rpm (4 °C). Following the centrifugation, 50 μL supernatant was transferred to a clean test tube and was diluted with 100 μL of distilled water. The resulting mixture was then transferred to an LC-vial, and 10 μL was injected to the LC–QTOF–MS. • Standard (STD) and quality control (QC) samples: […] The mixture was capped, gently shaken for approximately 1 min and then centrifuged for 5 min at 10,000 rpm (4 °C). Following the centrifugation, 50 μL supernatant was transferred to a clean test tube and was diluted with 100 μL of distilled water. The resulting mixture was then transferred to an LC–vial, and 10 μL was injected to the LC–QTOF–MS. Data acquisition and LC–QTOF-MS operation was conducted using Analyst® TF Version 1.6 (Sciex). MultiQuant® Version 2.1.1 (Sciex) was used for the peak integration of omeprazole for quantification. PeakView® Version 2.2 and MetabolitePilot^TM Version 2.0.2 were used for the structural elucidation of omeprazole metabolites. Pharmacokinetic parameters were calculated in a non-compartmental analysis using WinNonlin® version 8.0.0 (Certara, Princeton, NJ, USA). The developed LC–QTOF-MS method was successfully applied to determine the PK parameters after i.v., i.p. and p.o. administration at a dose level of 10 mg/kg each for omeprazole in mice. During the sample preparation of the PK samples, QC samples were included for the assurance of the bioanalytical run. All the PK samples were within the range of the qualified calibration range (3.02~6670 ng/mL). Final concentrations were calculated by considering the dilution factors (e.g., 4× and 2× of the concentrations obtained from the brain and plasma, respectively). Each PK parameters were measured by non-compartmental analysis using WinNonlin (version 8.0.0). […] (Kp) = AUCbrain/AUCplasma(1)
smiles,measurement,setting,value
COc1ccc2[nH]c([S+]([O-])Cc3ncc(C)c(OC)c3C)nc2c1 (stereo not shown) [Omeprazole],brain-to-plasma partition coefficient (Kp) = AUCbrain/AUCplasma,"i.p., AUClast",0.0681
same,Kp,"male, ICR, mouse, ip, i.p., AUClast, read-out: brain-to-plasma partition coefficient (Kp) = AUCbrain/AUCplasma",0.068
same,Kp,"male, ICR, mouse, ip, i.p., read-out: Brain/Plasma Ratio",0.0681
same,Kp,"male, ICR, mouse, iv, i.v., AUClast, read-out: brain-to-plasma partition coefficient (Kp) = AUCbrain/AUCplasma",0.15
same,Kp,"male, ICR, mouse, iv, i.v., read-out: Brain/Plasma Ratio",0.147
same,Kp,"male, ICR, mouse, po, p.o., AUClast, read-out: brain-to-plasma partition coefficient (Kp) = AUCbrain/AUCplasma",0.064
same,Kp,"male, ICR, mouse, po, p.o., read-out: Brain/Plasma Ratio",0.0643
same,AUC(0-t),"male, ICR, mouse, ip, brain",72.8 ng·h/mL
same,half-life,"male, ICR, mouse, ip, brain",51.3 min
same,AUC(0-t),"male, ICR, mouse, ip, plasma",1070 ng·h/mL
same,Cmax,"male, ICR, mouse, ip, plasma",4890 ng/mL
same,half-life,"male, ICR, mouse, ip, plasma",28.8 min
same,AUC(0-t),"male, ICR, mouse, iv, brain",652 ng·h/mL
same,half-life,"male, ICR, mouse, iv, brain",48.2 min
same,AUC(0-t),"male, ICR, mouse, iv, plasma",4440 ng·h/mL
same,Cmax,"male, ICR, mouse, iv, plasma",67600 ng/mL
same,Vd,"male, ICR, mouse, iv, plasma",1.49 L/kg
same,clearance,"male, ICR, mouse, iv, plasma",37.8 mL/min/kg
same,half-life,"male, ICR, mouse, iv, plasma",27.4 min
same,bioavailability,"male, ICR, mouse, plasma, ip",24.1%
same,bioavailability,"male, ICR, mouse, plasma, po",5.31%
same,AUC(0-t),"male, ICR, mouse, po, brain",15.2 ng·h/mL
same,Cmax,"male, ICR, mouse, po, brain",37.8 ng/mL
same,half-life,"male, ICR, mouse, po, brain",44.6 min
same,AUC(0-t),"male, ICR, mouse, po, plasma",236 ng·h/mL
same,Cmax,"male, ICR, mouse, po, plasma",610 ng/mL
same,half-life,"male, ICR, mouse, po, plasma",54.8 min
same,brain-to-plasma partition coefficient (Kp) = AUCbrain/AUCplasma,"p.o., AUClast",0.0643
